Read-outs that look alike come from different tables or passages of the source.
How the values were obtained:
[1] = system: acute gouty arthritis in rats induced by sodium urate crystals; experiment: Foot swelling in rats with acute gouty arthritis induced by sodium urate crystals; assay type: in vivo; conditions: for Foot swelling: 16.67 mg/kg once a day, mean ± SD
Procedure: Injecting sodium urate crystals into the joint cavity to establish an acute gouty arthritis model. Its pathological and clinical manifestations are very similar. It is a classic method commonly used in animal experiments to study gouty arthritis. This experiment will explore the effects of UTLOH series drugs on animals with acute gouty arthritis induced by sodium urate.
SPF grade SD rats, half female and half male (200-220 g/mouse), were randomly grouped by weight. The drug was administered once a day, for 3 consecutive days. […] Rats in the normal group were injected with an equal volume of sterile saline to the back of the right ankle joint. The administration was continued after modeling, once a day for 3 consecutive days. The ankle joint and foot volume of the rats in each group were measured respectively before modeling and 2 h, 4 h, 8 h, 24 h and 48 h after modeling.

PGE2 induced by LPS = experiment: Inhibition of LPS-induced PGE2 in RAW 264.7 cells (ELISA); assay type: cell-based, mice; conditions: for PGE2 inhibition (%): RAW 264.7 cells, LPS 100 ng/mL, overnight, test concentration not given; for PGE2 inhibition rate (in words): same experimental method as Table 1
Procedure: (§1) This example is taken from a previous publication by Song et al.^[1]. In brief, mice RAW 264.7 cells were treated with increasing doses of each test compound at 37° C. for 1 hour. Thereafter, the cells were attacked with 20 μL/well of LPS (equivalent to a final concentration of 100 ng/mL). The cells were further incubated overnight at 37° C. A commercial ELISA assay kit obtained from R&D Systems (Minneapolis, Minn.) was used to determine the level of PGE2 in the supernatant, and three parallel experiments were performed. The optical density of each well was measured using a BioTek Epoch microplate reader (Winooski, Vt.) set to 450 nm. The NO study was performed in a similar manner, but Greiss reagent was used to monitor the level of NO, and the results were read at 550 nm.

[2] = system: 10% egg white-induced foot swelling in rats; experiment: 10% egg white-induced foot swelling in rats; assay type: in vivo; conditions: for Foot swelling: 6.67 mg/kg gavage once a day for 3 days, mean ± SD
Source text: Injecting 10% egg white into rat paws can cause early acute inflammation such as redness, heat, swelling, and pain in rat paws. In this experiment, the anti-inflammatory effects of UTLOH series compounds were observed by the degree of swelling of the paws of rats after inflammation.
SPF grade SD rats, half female and half male (100-120 g/mouse) were randomly grouped according to body weight. Each group was given the corresponding drugs by gavage, once a day, for 3 consecutive days, with a gavage volume of 1 ml/100 g. Before the experiment, the ankle joint of the right hind foot of each group of rats was marked, and the foot volume of each group of rats was measured twice with a rat foot volume meter, and the average of the two times was taken as the […]. 30 minutes after the last administration, the rats in each group were given a subcutaneous needle in the right hind paw, and injected with 10% fresh egg white solution 0.1 ml/mouse to cause inflammation, establishing a rat model of paw swelling. The post-inflamed foot volume in mice was measured twice at 1 h, 2 h, 3 h, and 4 h after inflammation, and the average of the two times was taken as the post-inflamed foot volume. The normal group was given 1 ml/100 g volume of 0.5% CMC-Na solution by gavage according to body weight.

NO induced by LPS = experiment: Inhibition of LPS-induced NO in RAW 264.7 cells (Greiss reagent); assay type: cell-based, mice; conditions: for IC50: Mus musculus, RAW264.7
Source text: Nitric oxide (NO) is a signaling molecule that plays a key role in the pathogenesis of inflammation. Under abnormal conditions, NO is a pro-inflammatory mediator that causes inflammation due to its overproduction. Therefore, the regulation of elevated NO levels by stimulants (such as LPS) has been widely used as a screening method to identify anti-inflammatory drugs. Since NO is oxidized into nitrite and nitrate, the determination of total NO2^−/NO3^− is a conventional method for determining NO levels, and Griess reagent is usually used in this type of experiment.
as §1

[3] = RAW 264.7 cells, LPS 100 ng/mL, overnight, read-out: NO IC50 (μM), class
[4] = RAW 264.7 cells, LPS 100 ng/mL, overnight, read-out: NO IC50 (μM), value in brackets
[5] = same method as Table 1, given as 10-50 μM, or <10 μM, read-out: IC50 of NO

Row | SMILES | PGE2 inhibition (%) (PGE2 induced by LPS) | IC50 (NO induced by LPS; [3]) | IC50 (NO induced by LPS; [4]) | PGE2 inhibition rate (in words) (PGE2 induced by LPS) | IC50 (NO induced by LPS; [5]) | also measured
1 | COc1cc2c(c(OC)c1OC)-c1ccc(OC)c(=O)cc1[C@@H](NC(C)=O)CC2 [Colchicine, reference compound] | – | – | – | – | – | Foot swelling ([1]; 2 h after modeling): 0.16 ± 0.12 mL; Foot swelling ([1]; 4 h after modeling): 0.21 ± 0.10 mL; Foot swelling ([1]; 8 h after modeling): 0.19 ± 0.10 mL; Foot swelling ([1]; 24 h after modeling): 0.20 ± 0.10 mL; Foot swelling ([1]; 48 h after modeling): 0.07 ± 0.09 mL; degree of foot swelling versus model group (in words) ([1]; gavage, at each time point): significantly lower
2 | Cc1oncc1C(=O)Nc1ccc(C(F)(F)F)cc1 [Leflunomide, reference compound] | 54.0% | > 250 µM | 298 µM | – | – | Foot swelling ([2]; 1 h after inflammation): 0.63 ± 0.14 mL; Foot swelling ([2]; 2 h after inflammation): 0.62 ± 0.15 mL; Foot swelling ([2]; 3 h after inflammation): 0.54 ± 0.14 mL; Foot swelling ([2]; 4 h after inflammation): 0.43 ± 0.11 mL; degree of foot swelling compared with the normal group (in words) ([2]; at 1 h and 2 h): significantly reduced
3 | C/C(O)=C(\C#N)C(=O)Nc1ccc(C(F)(F)F)cc1 [Teriflunomide, reference compound] | 70.2% | 150 to 250 µM | 175 µM | – | – | –
4 | Cc1cc(C(=O)Nc2cccc(O)c2)no1 [UTLOH-4b] | 64.0% | < 10 µM | 7.7 µM | – | – | –
5 | Cc1cc(C(=O)Nc2ccc(O)cc2)no1 [UTLOH-4c] | 73.1% | < 10 µM | 6.3 µM | – | – | inhibition on PGE2 compared to leflunomide (in words) (PGE2 induced by LPS; compared to leflunomide): stronger; inhibition of LPS-induced NO compared with leflunomide and teriflunomide (in words) (NO induced by LPS; compared with leflunomide and teriflunomide): more strongly
6 | Cc1cc(C(=O)Nc2cccc(O)c2O)no1 [UTLOH-4d] | – | – | – | very good | ≤ 50 µM | –
7 | Cc1cc(C(=O)Nc2cc(O)ccc2O)no1 [UTLOH-4f] | – | – | – | very good | ≤ 50 µM | –
8 | Cc1cc(C(=O)Nc2c(O)cccc2O)no1 [UTLOH-4g] | – | – | – | very good | ≤ 50 µM | –
9 | Cc1cc(C(=O)Nc2ccc(O)c(O)c2)no1 [UTLOH-4h] | – | – | – | very good | ≤ 50 µM | –
10 | Cc1cc(C(=O)Nc2cc(O)cc(O)c2)no1 [UTLOH-4i] | – | – | – | very good | ≤ 50 µM | –
11 | Cc1cc(C(=O)Nc2c(O)cc(O)cc2O)no1 [UTLOH-4k] | – | – | – | very good | ≤ 50 µM | –

— patent US11618738B2, “Compound and application thereof in treating inflammation or inflammation-related diseases” (SICHUAN CENTER FOR TRANSLATIONAL MEDICINE OF TRADITIONAL …, priority 2017, dated 2023)
